Source: patent publication US20180036382A1, “FORMULATIONS FOR ORAL ADMINISTRATION OF ACTIVE AGENTS WITH CONTROLLED ABSORPTION PROFILE” (Entera Bio Ltd., priority 2015, published 2018)

Assays:
Assay type in all cases: in vivo, human
[1] = Pharmacokinetic study of oral teriparatide tablet in healthy volunteers (Example 1)
Procedure: An open label comparative pharmacokinetic study was performed in healthy volunteers over the course of 3 months. Each volunteer received—in each of two visits—the same oral tablet containing 0.75 mg of teriparatide, a recombinant form of parathyroid hormone (1-34).
The formulation was composed of teriparatide (0.75 mg), SNAC (sodium 8-N-(2-hydroxybenzoyl) aminocaprylate), soybean trypsin inhibitor (SBTI) and a small amount of magnesium stearate.
Tablets were administered in the morning after an 8-hour overnight fast and immediately followed by 150 ml of water. At each visit a standard meal was provided 3 hours after drug administration. […] There was a two weeks period between the visits.
(§1) To determine parathyroid hormone (1-34) (PTH(1-34)) concentrations, blood samples (4 ml each) were drawn via an indwelling catheter from the forearm vein at predetermined time points during each visit. The cannula was flushed with 1.5 ml normal saline after each sampling. In addition, to avoid sample dilution, 1 ml of blood was drawn and discarded before the next sample. The blood samples were taken at following times: baseline (predose), 10 minutes, 15 minutes, 20 minutes, 30 minutes, 45 minutes, 60 minutes, 75 minutes, 90 minutes, 105 minutes, 2 hours, 3 hours, 4 hours and 5 hours post-administration. Each blood sample was collected into a single tube containing EDTA (ethylenediaminetetraacetic acid) and placed on ice. Within 15 minutes of blood collection, samples were centrifuged for 10 minutes at 4° C. (2500 rotations per minute) and the plasma was separated and divided into two or three aliquots. Each aliquot was transferred into appropriately labeled polypropylene tubes and stored at approximately −20° C. pending analysis. PTH (1-34) levels were measured using an IDS-iSYS automated assay for the measurement of intact PTH (1-34) in human plasma or serum.

[2] = Phase I clinical trial of oral teriparatide formulations, plasma PTH (1-34) versus subcutaneous injection (Example 2)
Procedure: A Phase I clinical study of exemplary oral formulations comprising teriparatide (parathyroid hormone (1-34)) was conducted at the Hadassah Clinical Research Center. 42 healthy volunteers were included throughout the study.
The formulation was composed of teriparatide (200, 400, 680, 1400 or 1800μ.g), SNAC (sodium 8-N-(2-hydroxybenzoyl) aminocaprylate), soybean trypsin inhibitor and magnesium stearate.
Tablets were administered in the morning after an 8-hour overnight fast and immediately followed by 150 ml of water. At each visit a standard meal was provided 3 hours after drug administration.
as §1, with “hormone” for “hormone (1-34) (PTH(1-34))”, “points.” for “points during each visit.”, “(predose),” for “(predose), 10 minutes,”, “15” for “15 minutes, 20”
Oral administration of teriparatide was performed as described hereinabove at doses of 200, 400, 680, 1400 or 1800 μg. The Cmax of PTH (1-34) for each orally administered dose was compared with the Cmax of PTH (1-34) for subcutaneous injection of 20 μg teriparatide.

[3] = tested on: cAMP, a known marker of PTH activity; assay: Plasma cAMP levels after teriparatide administration (marker of PTH activity); details: FIG. 4
Procedure: In addition, plasma levels of cAMP, a known marker of PTH activity, were determined in order to confirm biological activity of administered PTH. cAMP plasma levels were measured following oral administration of 680 μg teriparatide or subcutaneous injection of 20 μg teriparatide, as described hereinabove.

With `CC[C@H](C)[C@H](NC(=O)[C@H](CCC(=O)O)NC(=O)[C@H](CO)NC(=O)[C@@H](NC(=O)[C@@H](N)CO)C(C)C)C(=O)N[C@@H](CCC(N)=O)C(=O)N[C@@H](CC(C)C)C(=O)N[C@@H](CCSC)C(=O)N[C@@H](Cc1cnc[nH]1)C(=O)N[C@@H](CC(N)=O)C(=O)N[C@@H](CC(C)C)C(=O)NCC(=O)N[C@@H](CCCCN)C(=O)N[C@@H](Cc1cnc[nH]1)C(=O)N[C@@H](CC(C)C)C(=O)N[C@@H](CC(N)=O)C(=O)N[C@@H](CO)C(=O)N[C@@H](CCSC)C(=O)N[C@@H](CCC(=O)O)C(=O)N[C@@H](CCCN=C(N)N)C(=O)N[C@H](C(=O)N[C@@H](CCC(=O)O)C(=O)N[C@@H](Cc1c[nH]c2ccccc12)C(=O)N[C@@H](CC(C)C)C(=O)N[C@@H](CCCN=C(N)N)C(=O)N[C@@H](CCCCN)C(=O)N[C@@H](CCCCN)C(=O)N[C@@H](CC(C)C)C(=O)N[C@@H](CCC(N)=O)C(=O)N[C@@H](CC(=O)O)C(=O)N[C@H](C(=O)N[C@@H](Cc1cnc[nH]1)C(=O)N[C@@H](CC(N)=O)C(=O)N[C@@H](Cc1ccccc1)C(=O)O)C(C)C)C(C)C` [teriparatide] the “Cmax after 1st administration” value ([1]; oral tablet 0.75 mg teriparatide with SNAC, SBTI, magnesium stearate, fasted healthy volunteers, plasma PTH (1-34), one table row per individual subject (A, B, C)) was 35 picogram/ml, the “time for parathyroid hormone (1-34) levels to return to baseline levels after tablet administration” value ([1]; oral tablet 0.75 mg teriparatide, FIGS. 1A-1C) was ≤ 60 min and the “time after administration at which peak concentration (Cmax) occurred” value ([1]; oral tablet 0.75 mg teriparatide, all subjects and administrations, Table 3, FIGS. 1A-1C) was ≤ 20 min. The “Cmax after 2nd administration” value ([1]; same oral tablet 0.75 mg teriparatide, second visit two weeks later, plasma PTH (1-34), one table row per individual subject (A, B, C)) was 36 picogram/ml, the “decline of PTH levels following oral administration compared with subcutaneous administration” value ([2]; oral 1800 μg versus subcutaneous 20 μg teriparatide, FIG. 3) was “declined considerably more rapidly” and the “dose dependence of Cmax of PTH (1-34) following oral administration” value ([2]; oral doses 200, 400, 680, 1400 or 1800 μg teriparatide, FIG. 2) was “proportional to the dose”. For the same compound, the “oral dose providing a Cmax equivalent to that of subcutaneous administration of 20 μg teriparatide” value ([2]; oral tablets with SNAC, soybean trypsin inhibitor, magnesium stearate, FIG. 2) was “roughly 750 μg”, the “plasma cAMP levels” value ([3]; oral administration of 680 μg teriparatide, compared with subcutaneous 20 μg) was “increased plasma cAMP levels to a similar degree” and the “plasma cAMP levels” value ([3]; subcutaneous administration of 20 μg teriparatide, compared with oral 680 μg) was “increased plasma cAMP levels to a similar degree”.
